We go through twelve compounds from ChEMBL document CHEMBL1201862, “PubChem BioAssay data set” (2004).

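96-well plates; 48 h exposure; 5 concentrations. Endpoints by linear interpolation between flanking doses. Not reached: highest tested concentration assigned. Here, GI50 denotes the concentration required for 50% inhibition of growth.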 Active and inactive are the calls of the source. Rule as the data show it: active = GI50 up to about 1.1 µM and inactive = higher. Where a SMILES comes first, the peptide text is derived from it. The star is where a group is joined. Boc = CC(C)(C)OC(=O)* Some results are limits rather than exact numbers.

Some test systems named below: ACHN; CAKI-1; EKVX; HCC 2998; HCT-15; HT-29; KM12; LOX IMVI; M14; NCI-H522; OVCAR-4; OVCAR-8; RPMI-8226; SF-268; SK-MEL-5; SW-620; UACC-62; SK-OV-3.
Common to all, as to test: growth of human tumour cells (NCI), 48 h

Turning to `CN(C)Cc1cc(C(=O)/C=C/c2ccc(/C=C/C(=O)c3cc(CN(C)C)c(O)c(CN(C)C)c3)cc2)cc(CN(C)C)c1O`, the GI50 in the assay on ACHN is 23.4 µM (inactive); in the assay on CAKI-1, 39 µM (inactive); in the assay with EKVX it was 39.2 µM (inactive); in the assay on HCC 2998 it was 16.9 µM (inactive); with HCT-15 it was 29.6 µM; with HT-29, 13.5 µM (inactive). The GI50 in the assay with KM12 was 17.7 µM (inactive); in the assay on LOX IMVI, 11.9 µM (inactive); with M14, 17 µM (inactive); in the assay with NCI-H522 it was 10.5 µM (inactive); with OVCAR-4, 50.6 µM (inactive); with OVCAR-8, 49.3 µM (inactive). For the same compound, the GI50 was 23.4 µM (inactive) in the assay with RPMI-8226; 27.5 µM (inactive) in the assay on SF-268; 42.9 µM (inactive) in the assay on SK-MEL-5; 20.8 µM (inactive) with SW-620; 25.9 µM (inactive) in the assay with UACC-62.

Take `Cc1nn(C(=O)Cc2ccccc2)c2c1C(c1ccccc1[N+](=O)[O-])SC(=N)N2` (configuration not stated): the GI50 with ACHN was > 100 µM (inactive); with CAKI-1 it was > 100 µM (inactive); in the assay on EKVX it was > 100 µM (inactive); in the assay with HCC 2998 it was > 100 µM (inactive); with HCT-15, > 100 µM; in the assay on HT-29 it was > 100 µM (inactive). Further, the GI50 in the assay on KM12, in the assay with LOX IMVI, in the assay on M14, with NCI-H522, in the assay on OVCAR-8 and in the assay on RPMI-8226 was > 100 µM (inactive) each time. Moreover, the GI50 with SF-268, with SK-MEL-5, in the assay on SK-OV-3, in the assay with SW-620 and in the assay on UACC-62 was > 100 µM (inactive) each time.

With `COc1cc(S(=O)(=O)Nc2nc(-c3ccc(/N=C/c4cccs4)cc3)cs2)ccc1Cl`, the GI50 in the assay with ACHN is > 100 µM (inactive); with CAKI-1, > 100 µM (inactive); in the assay on EKVX, > 100 µM (inactive); in the assay on HCC 2998, > 100 µM (inactive); with HCT-15, 36.1 µM; with HT-29, > 100 µM (inactive). Moreover, the GI50 in the assay with KM12 is 67.1 µM (inactive); with LOX IMVI it was 31 µM (inactive); in the assay on M14, > 100 µM (inactive); in the assay on NCI-H522 it was 28.4 µM (inactive); in the assay with OVCAR-4 it was 38.9 µM (inactive); in the assay on OVCAR-8, 40.7 µM (inactive). Further, the GI50 in the assay with SF-268 is 56.6 µM (inactive); in the assay with SK-MEL-5 it was > 100 µM (inactive); in the assay on SK-OV-3, > 100 µM (inactive); in the assay with SW-620, 35.5 µM (inactive); with UACC-62, 19.8 µM (inactive).

As for `C(/Cc1ccc2c(c1)OCO2)=N\N=C1NCCN1`, the GI50 with ACHN is > 100 µM (inactive); in the assay with EKVX, 61.2 µM (inactive); in the assay on HCC 2998, 92.3 µM (inactive); with HCT-15, > 100 µM; in the assay on HT-29, 57.9 µM (inactive); with KM12, > 100 µM (inactive). The GI50 was 41.2 µM (inactive) in the assay with LOX IMVI; > 100 µM (inactive) in the assay on M14; > 100 µM (inactive) with NCI-H522; > 100 µM (inactive) in the assay with OVCAR-4; > 100 µM (inactive) in the assay with OVCAR-8; 83.2 µM (inactive) in the assay on RPMI-8226. Further, the GI50 in the assay on SF-268 is > 100 µM (inactive); in the assay on SK-MEL-5 it was 47.3 µM (inactive); in the assay on SK-OV-3 it was 48.6 µM (inactive); in the assay with SW-620 it was > 100 µM (inactive); with UACC-62 it was > 100 µM (inactive).

As to `CCOC(=O)c1c(NC(=O)c2ccccc2)c(C#N)c2n1CCCCC2`, the GI50 with ACHN is > 100 µM (inactive); in the assay on CAKI-1, > 100 µM (inactive); with EKVX it was > 100 µM (inactive); in the assay on HCC 2998, > 100 µM (inactive); with HCT-15 it was > 100 µM; in the assay with HT-29 it was > 100 µM (inactive). The GI50 with KM12, with LOX IMVI, in the assay on M14, in the assay with NCI-H522, with OVCAR-4 and with OVCAR-8 was > 100 µM (inactive) in each case. Further, the GI50 in the assay on RPMI-8226, in the assay with SF-268, with SK-MEL-5, with SK-OV-3 and in the assay on UACC-62 was > 100 µM (inactive) throughout.

Regarding `COc1cc(C(c2cccc3ccccc23)N2C(=O)CCC2C(=O)NCc2ccccc2)cc(OC)c1OC` (configuration not stated), the GI50 in the assay on CAKI-1 was > 100 µM (inactive); in the assay with EKVX, > 100 µM (inactive); with HCC 2998, > 100 µM (inactive); in the assay with HCT-15, > 100 µM; in the assay on HT-29, > 100 µM (inactive); in the assay on KM12 it was > 100 µM (inactive). Besides, the GI50 is > 100 µM (inactive) in the assay with LOX IMVI; > 100 µM (inactive) in the assay with M14; > 100 µM (inactive) with NCI-H522; > 100 µM (inactive) in the assay with OVCAR-4; > 100 µM (inactive) with OVCAR-8; 55.3 µM (inactive) in the assay with RPMI-8226. For the same compound, the GI50 was > 100 µM (inactive) in the assay with SF-268; > 100 µM (inactive) in the assay on SK-MEL-5; > 100 µM (inactive) in the assay with SK-OV-3; > 100 µM (inactive) with SW-620; 64.6 µM (inactive) in the assay with UACC-62.

In the case of `O=C1OC(OCC#CCOC2OC(=O)C(Cl)=C2Cl)C(Cl)=C1Cl` (configuration not stated), the GI50 in the assay on ACHN is 16.2 µM (inactive); with EKVX, 20.1 µM (inactive); with HCC 2998, 2.8 µM (inactive); with HCT-15 it was 5.85 µM; with HT-29, 5.6 µM (inactive); in the assay with KM12, 18.9 µM (inactive). Moreover, the GI50 in the assay on LOX IMVI was 2.65 µM (inactive); with M14, 11.2 µM (inactive); with NCI-H522, 1.7 µM (inactive); in the assay with OVCAR-8 it was 4.31 µM (inactive); with RPMI-8226, 3.57 µM (inactive); with SF-268, 18.2 µM (inactive). Moreover, the results for the GI50 in the assay with SK-MEL-5, with SW-620 and in the assay with UACC-62 were 18.2 µM (inactive), 4.45 µM (inactive) and 14.2 µM (inactive), respectively.

For the compound `Cc1ccc(-c2nc(Cc3n[nH]c(-c4ccc(C)cc4)n3)n[nH]2)cc1`, the GI50 was 6.38 µM (inactive) in the assay on ACHN; > 100 µM (inactive) with EKVX; > 100 µM (inactive) in the assay on HCC 2998; > 100 µM in the assay on HCT-15; > 100 µM (inactive) in the assay on HT-29; > 100 µM (inactive) in the assay with KM12. Further, the GI50 is > 100 µM (inactive) with LOX IMVI; > 100 µM (inactive) in the assay on M14; 2.99 µM (inactive) in the assay on NCI-H522; 3.75 µM (inactive) in the assay with OVCAR-4; 10.3 µM (inactive) in the assay with OVCAR-8; > 100 µM (inactive) with RPMI-8226. Further, the GI50 was 6.14 µM (inactive) in the assay on SF-268; > 100 µM (inactive) in the assay with SK-MEL-5; > 100 µM (inactive) in the assay on SK-OV-3; > 100 µM (inactive) with SW-620; 4.86 µM (inactive) in the assay on UACC-62.

As to `Cc1ccc(/N=N/c2c(O)ccc3cc(S(=O)(=O)O)cc(S(=O)(=O)O)c23)cc1`, the GI50 is > 100 µM (inactive) with ACHN; > 100 µM (inactive) in the assay on CAKI-1; > 100 µM (inactive) with EKVX; > 100 µM (inactive) with HCC 2998; > 100 µM in the assay on HCT-15; > 100 µM (inactive) with KM12. The GI50 in the assay with M14 was > 100 µM (inactive); in the assay with NCI-H522, > 100 µM (inactive); with OVCAR-4, > 100 µM (inactive); with OVCAR-8, > 100 µM (inactive); in the assay with RPMI-8226, < 0.01 µM (active); in the assay on SF-268 it was > 100 µM (inactive). For the same compound, the GI50 in the assay on SK-MEL-5, in the assay with SK-OV-3, in the assay with SW-620 and in the assay with UACC-62 was > 100 µM (inactive) in each case.

With `C[N+](C)(C)[BH-](Br)C(O)O` (configuration not stated), the GI50 in the assay on ACHN is > 100 µM (inactive); with CAKI-1, > 100 µM (inactive); with EKVX it was > 100 µM (inactive); in the assay with HCC 2998, > 100 µM (inactive); in the assay on HCT-15, > 100 µM; in the assay with HT-29, > 100 µM (inactive). The GI50 in the assay with KM12, in the assay on LOX IMVI, with M14, with NCI-H522, in the assay on OVCAR-4 and with SF-268 was > 100 µM (inactive) each time. Also, the GI50 with SK-MEL-5, with SW-620 and with UACC-62 was > 100 µM (inactive) in each case.

On to `CCN(CC)CCC(=O)c1ccc(Cl)c(Cl)c1`, for which the GI50 in the assay with ACHN was 76.9 µM (inactive); in the assay with EKVX, > 100 µM (inactive); in the assay with HCC 2998 it was 43.6 µM (inactive); in the assay on HCT-15, 34.6 µM; in the assay on HT-29, 32.3 µM (inactive); in the assay on KM12, 34.6 µM (inactive). The GI50 in the assay on LOX IMVI is 15 µM (inactive); in the assay on M14, 42.3 µM (inactive); in the assay with NCI-H522, 17.3 µM (inactive); in the assay on OVCAR-4 it was 47.4 µM (inactive); with OVCAR-8 it was 37.2 µM (inactive); in the assay with RPMI-8226, 3.61 µM (inactive). The GI50 in the assay on SF-268 was 20.8 µM (inactive); in the assay with SK-MEL-5, 20.1 µM (inactive); with SK-OV-3, > 100 µM (inactive); with SW-620, 19.7 µM (inactive); in the assay on UACC-62 it was 14.8 µM (inactive).

Turning to `COC(=O)C(Cc1c[nH]c2ccccc12)NC(=O)C(Cc1c[nH]c2ccccc12)NC(=O)C(Cc1c[nH]c2ccccc12)NC(=O)C(Cc1c[nH]c2ccccc12)NC(=O)C(Cc1c[nH]c2ccccc12)NC(=O)C(Cc1c[nH]c2ccccc12)NC(=O)C(Cc1c[nH]c2ccccc12)NC(=O)C(Cc1c[nH]c2ccccc12)NC(=O)OC(C)(C)C` (configuration not stated) (Boc-WWWWWWWW-OMe; configuration not given here), the GI50 in the assay with ACHN is > 100 µM (inactive); with CAKI-1, > 100 µM (inactive); in the assay with HCC 2998 it was > 100 µM (inactive); in the assay on HCT-15 it was > 100 µM; in the assay on HT-29, > 100 µM (inactive); with LOX IMVI, 63.5 µM (inactive). In addition, the GI50 was 12.6 µM (inactive) in the assay on M14; 17.4 µM (inactive) with NCI-H522; > 100 µM (inactive) in the assay with OVCAR-4; > 100 µM (inactive) with OVCAR-8; 57.9 µM (inactive) in the assay on RPMI-8226; > 100 µM (inactive) in the assay with SF-268. For the same compound, the results for the GI50 in the assay with SK-MEL-5, in the assay on SW-620 and in the assay on UACC-62 were 24.3 µM (inactive), > 100 µM (inactive) and 28.5 µM (inactive), respectively.
